Experimental findings from patent US20250051347A1, “BIFUNCTIONAL CHIMERIC HETEROCYCLIC COMPOUND AND USE THEREOF AS ANDROGEN RECEPTOR DEGRADER” (Hinova Pharmaceuticals, Inc., priority 2021, published 2025) are described below.

Each structure is given as a SMILES string.

In the first test the target is T1, androgen receptor (AR) splicing variant AR-v7 (Homo sapiens, UniProt P10275).
T1 construct: The degradation activity of compounds on AR-v7 in 22RV1 cells; host or cells: 22RV1 cells
T1 sequence (P10275 1-644 isoform P10275-3): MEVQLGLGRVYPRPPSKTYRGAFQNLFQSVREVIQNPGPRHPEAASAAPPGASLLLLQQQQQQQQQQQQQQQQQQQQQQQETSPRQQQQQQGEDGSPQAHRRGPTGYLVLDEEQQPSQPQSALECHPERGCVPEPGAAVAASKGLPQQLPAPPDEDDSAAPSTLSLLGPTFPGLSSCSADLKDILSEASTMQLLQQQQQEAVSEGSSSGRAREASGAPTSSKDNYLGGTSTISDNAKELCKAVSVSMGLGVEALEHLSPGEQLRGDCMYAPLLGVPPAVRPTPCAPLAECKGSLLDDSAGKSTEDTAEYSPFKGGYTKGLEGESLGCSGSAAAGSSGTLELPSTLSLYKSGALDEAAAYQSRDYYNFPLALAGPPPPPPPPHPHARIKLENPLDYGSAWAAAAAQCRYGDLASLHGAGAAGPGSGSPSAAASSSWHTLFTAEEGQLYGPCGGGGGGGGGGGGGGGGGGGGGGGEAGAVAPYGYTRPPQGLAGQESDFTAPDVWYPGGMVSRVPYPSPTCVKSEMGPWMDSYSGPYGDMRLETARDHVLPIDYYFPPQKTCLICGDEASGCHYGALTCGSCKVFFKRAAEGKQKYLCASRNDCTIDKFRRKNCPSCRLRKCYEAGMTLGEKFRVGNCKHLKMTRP
The test can be described thus: Degradation activity on androgen receptor splicing variant AR-v7 in 22RV1 cells (ELISA). It is filed as cell-based. To be noted: AR-v7 degradation in 22RV1 cells, 48 h, class symbols.
The term DC50 denotes the concentration at which degradation of the target reaches its halfway point. Low values mean degradation at low concentration, high ones degradation only at high concentration. Take `CC(C)(c1ccc(OCc2ccnc(N3CC4(COC4)C3)n2)cc1)c1ccc(C(=O)N2CC(Nc3ccc4c(c3)C(=O)N(C3CCC(=O)NC3=O)C4=O)C2)cc1` (centres unmarked) [Example 503]: the DC50 was in the range of 11 to 100 nM.

For the compound `CC(c1ccc(C(C)(C)c2ccc(OCc3ccnc(N4CC5(COC5)C4)n3)cc2)cc1)N1CC(Nc2ccc3c(c2)C(=O)N(C2CCC(=O)NC2=O)C3=O)C1` (centres unmarked) [Example 505, 5-((1-(1-(4-(2-(4-(4-) 4-((2-(2-oxa-6-azaspiro[3.3]heptane-6-yl)pyrimidin-4-yl)methoxy)phenyl)propan-2-yl)phenyl)ethyl)azetidin-3-yl)amino)-2-(2,6-dioxopiperidin-3-yl)isoindolin-1,3-dione], the DC50 fell in the range of 1000 to 5000 nM.

Compound `CC(C)(c1ccc(CNc2ccc3c(c2)C(=O)N(C2CCC(=O)NC2=O)C3=O)cc1)c1ccc(OCc2ccnc(N3CC4(COC4)C3)n2)cc1` (centres unmarked) [Example 507, 5-((4-(2-(4-((2-(2-oxa-6-azaspiro[3.3]heptan-6-yl)pyrimidin-4-yl)methoxy)phenyl)propan-2-yl)benzyl)amino)-2-(2,6-dioxopiperidin-3-yl)isoindolin-1,3-dione] had a half-maximal degradation concentration (DC50) of 11 to 100 nM. On the same count and under the same terms, the same measure for `CN(C(=O)c1ccc(C(C)(C)c2ccc(OCc3ccnc(N4CC5(COC5)C4)n3)cc2)cc1)C1CN(c2ccc3c(c2)C(=O)N(C2CCC(=O)NC2=O)C3=O)C1` (centres unmarked) [Example 508, 4-(2-(4-((2-(2-oxa-6-azaspiro[3.3]heptan-6-yl)pyrimidin-4-yl)methoxy)phenyl)propan-2-yl)-N-(1-(2-(2,6-dioxopiperidin-3-yl)-1,3-dioxoisoindolin-5-yl)azetidin-3-yl)-N-methylbenzamide]: 101 to 1000 nM; for `CC(C)(c1ccc(CNC2CN(c3ccc4c(c3)C(=O)N(C3CCC(=O)NC3=O)C4=O)C2)cc1)c1ccc(OCc2ccnc(N3CC4(COC4)C3)n2)cc1` (centres unmarked) [Example 509]: 11 to 100 nM.

`Cc1nc(-c2ncc(Oc3ccc(C(C)(C)c4ccc(O[C@H]5C[C@H](Nc6ccc7c(c6)C(=O)N(C6CCC(=O)NC6=O)C7=O)C5)cc4)cc3)cc2F)no1` (some centres unmarked) [Example 511] came in with a half-maximal degradation concentration (DC50) of 11 to 100 nM.

As to `Cc1nnc(-c2coc(Oc3ccc(C(C)(C)c4ccc(O[C@H]5C[C@H](Nc6ccc7c(c6)C(=O)N(C6CCC(=O)NC6=O)C7=O)C5)cc4)cc3)n2)o1` (some centres unmarked) [Example 514], the DC50 lay in the range of 11 to 100 nM. Regarding `CC(C)(c1ccc(Oc2cnc(-n3nccn3)c(Cl)c2)cc1)c1ccc(O[C@H]2C[C@H](Nc3ccc4c(c3)C(=O)N(C3CCC(=O)NC3=O)C4=O)C2)cc1` (some centres unmarked) [Example 515], the half-maximal degradation concentration (DC50) fell in the range of 11 to 100 nM. Same read-out and setting: the same measure for `CC(c1ccc(Oc2cnc(-n3ccnn3)nc2)cc1)c1ccc(O[C@H]2C[C@H](Nc3ccc4c(c3)C(=O)N(C3CCC(=O)NC3=O)C4=O)C2)cc1` (some centres unmarked) [Example 519]: 11 to 100 nM; for `O=C1CCC(N2C(=O)c3ccc(N[C@H]4C[C@H](Oc5ccc(Cc6ccc(Oc7cnc(-n8ccnn8)nc7)cc6)cc5)C4)cc3C2=O)C(=O)N1` (some centres unmarked) [Example 520]: 11 to 100 nM; for `CC(O)c1ccc(Oc2ccc(C(C)(C)c3ccc(O[C@H]4C[C@@H](Nc5ccc6c(c5)C(=O)N(C5CCC(=O)NC5=O)C6=O)C4)cc3)cc2)cn1` (some centres unmarked) [Example 524]: 11 to 100 nM.

As for `Cc1nc(-c2ncc(Oc3ccc(C(C)(C)c4ccc(OC5CC(Nc6cc7c(cn6)C(=O)N(C6CCC(=O)NC6=O)C7=O)C5)cc4)cc3)cn2)no1` (centres unmarked) [Example 530, 2-(2,6-dioxopiperidin-3-yl)-6-((1r,3r)-3-(4-(2-(4-((2-(5-methyl-1,2,4-oxadiazol-3-yl)pyrimidin-5-yl)oxy)phenyl)propan-2-yl)phenoxy)cyclobutyl)amino)-1H-pyrrolo[3,4-c]pyridin-1,3(2H)-dione], the 50% degradation concentration (DC50) lay in the range of 101 to 1000 nM. `CCNC(=O)c1nccc(COc2ccc(C(C)(C)c3ccc(OC4CC(Nc5ccc6c(c5)C(=O)N(C5CCC(=O)NC5=O)C6=O)C4)cc3)cc2)n1` (centres unmarked) [Example 531] displayed a DC50 of 11 to 100 nM. Compound `CN1CCN(c2ncc(COc3ccc(C(C)(C)c4ccc(OC5CC(Nc6ccc7c(c6)C(=O)N(C6CCC(=O)NC6=O)C7=O)C5)cc4)cc3)cn2)CC1` (centres unmarked) [Example 534] displayed a 50% degradation concentration (DC50) of 11 to 100 nM. Compound `Cc1cncc(Oc2ccc(C(C)(C)c3ccc(O[C@H]4C[C@@H](Nc5ccc6c(c5)C(=O)N(C5CCC(=O)NC5=O)C6=O)C4)cc3)cc2)n1` (some centres unmarked) [Example 537] showed a half-maximal degradation concentration (DC50) of 11 to 100 nM. `CC(C)(c1ccc(Oc2ccc(-n3nccn3)nc2)cc1)c1ccc(O[C@H]2C[C@@H](Nc3ccc4c(c3)C(=O)N(C3CCC(=O)NC3=O)C4=O)C2)cc1` (some centres unmarked) [Example 540] came in with a 50% degradation concentration (DC50) of 11 to 100 nM. On to `CC(C)(c1ccc(Oc2ccc(-n3ccnn3)nc2)cc1)c1ccc(O[C@H]2C[C@@H](Nc3ccc4c(c3)C(=O)N(C3CCC(=O)NC3=O)C4=O)C2)cc1` (some centres unmarked) [Example 541, 5-((1s,3s)-3-(4-(2-(4-((6-(1H-1,2,3-triazol-1-yl)pyridin-3-yl)oxy)phenyl)propan-2-ylphenoxy)cyclobutyl)amino)-2-(2,6-dioxopiperidin-3-yl)isoindolin-1,3-dione], for which the DC50 lay in the range of 11 to 100 nM. In turn, `CC(C)(c1ccc(Oc2ccc(-n3cccn3)nc2)cc1)c1ccc(O[C@H]2C[C@@H](Nc3ccc4c(c3)C(=O)N(C3CCC(=O)NC3=O)C4=O)C2)cc1` (some centres unmarked) [Example 542] came in with a DC50 of 11 to 100 nM.

For the compound `Cc1nc(-c2ccc(Oc3ccc(C(C)(C)c4ccc(OC5CC(Nc6ccc7c(c6)C(=O)N(C6CCC(=O)NC6=O)C7=O)C5)cc4)cc3)cn2)no1` (centres unmarked) [Example 543, 2-(2,6-dioxopiperidin-3-yl)-5-(1s,3s)-3-(4-(2-(4-(6-(5-methyl-1,2,4-oxadiazol-3-yl)pyridin-3-yl)oxy)phenyl)propan-2-yl)phenoxy)cyclobutyl)amino) isoindolin-1,3-dione], the DC50 was in the range of 11 to 100 nM. With `CC(C)(c1ccc(OCc2nccc(N3CC4(COC4)C3)n2)cc1)c1ccc(O[C@H]2C[C@@H](Nc3ccc4c(c3)C(=O)N(C3CCC(=O)NC3=O)C4=O)C2)cc1` (some centres unmarked) [Example 545], the 50% degradation concentration (DC50) lay in the range of 11 to 100 nM.

`Cc1nc(-c2ccc(Oc3ccc(C(C)(C)c4ccc(O[C@H]5C[C@H](Nc6ccc7c(c6)C(=O)N(C6CCC(=O)NC6=O)C7=O)C5)cc4)cc3)nc2)no1` (some centres unmarked) [Example 546] registered a DC50 of 11 to 100 nM. As for `COc1cnc(Oc2ccc(C(C)(C)c3ccc(O[C@H]4C[C@H](Nc5ccc6c(c5)C(=O)N(C5CCC(=O)NC5=O)C6=O)C4)cc3)cc2)cn1` (some centres unmarked) [Example 552, 2-(2,6-dioxopiperidin-3-yl)-5-(((1r,3r)-3-(4-(4-((5-methoxypyrazin-2-yl)oxy)phenyl)propan-2-yl)phenoxy)amino)isoindolin-1,3-dione], the DC50 lay in the range of 11 to 100 nM. For the compound `CC(C)(c1ccc(OCCCNc2cccc3c2C(=O)N(C2CCC(=O)NC2=O)C3=O)cc1)c1ccc(OCc2ccnc(N3CCC3)n2)cc1` (centres unmarked) [Example 554, 4-((3-(4-(2-(4-((2-(azetidin-1-yl)pyrimidin-4-yl)methoxy)phenyl)propan-2-yl)phenoxy)propyl)amino)-2-(2,6-dioxopiperidin-3-yl)isoindolin-1,3-dione], the DC50 was in the range of 101 to 1000 nM. As for `CC(C)(c1ccc(OCCCNc2cccc3c2C(=O)N(C2CCC(=O)NC2=O)C3=O)cc1)c1ccc(OCc2ccnc(N3CCCCC3)n2)cc1` (centres unmarked) [Example 555], the DC50 was 101 to 1000 nM.

The compound `CC(=O)c1nccc(COc2ccc(C(C)(C)c3ccc(N4CC5(CCN(c6ccc7c(c6)C(=O)N(C6CCC(=O)NC6=O)C7=O)CC5)C4)cc3)cc2)n1` (centres unmarked) [Example 559] registered a 50% degradation concentration (DC50) of 1000 to 5000 nM. The compound `CC(=O)c1nccc(COc2ccc(C(C)(C)c3ccc(N4CCC5(CCN(c6ccc7c(c6)C(=O)N(C6CCC(=O)NC6=O)C7=O)C5)C4)cc3)cc2)n1` (centres unmarked) [Example 560] displayed a DC50 of 1000 to 5000 nM. For `CC(=O)c1nccc(COc2ccc(C(C)(C)c3ccc(OC4CC5(C4)CN(c4ccc6c(c4)C(=O)N(C4CCC(=O)NC4=O)C6=O)C5)cc3)cc2)n1` (centres unmarked) [Example 561], the DC50 lay in the range of 11 to 100 nM. In turn, `CC(=O)c1nccc(COc2ccc(C(C)(C)c3ccc(OC4CC5(CCN(c6ccc7c(c6)C(=O)N(C6CCC(=O)NC6=O)C7=O)C5)C4)cc3)cc2)n1` (centres unmarked) [Example 562] gave a DC50 of 1000 to 5000 nM. In turn, `CC(C)(c1ccc(OCc2ccnc(N3CC4(COC4)C3)n2)cc1)c1ccc(OC2CCC(Nc3ccc4c(c3)C(=O)N(C3CCC(=O)NC3=O)C4=O)C2)cc1` (centres unmarked) [Example 563, 5-((3-(4-(2-(4-((2-(2-oxa-6-azaspiro[3.3]heptan-6-yl)pyrimidin-4-yl)methoxy)phenyl)propan-2-yl)phenoxy)cyclopentyl)amino)-2-(2,6-dioxopiperidin-3-yl)isoindolin-1,3-dione] displayed a DC50 of 11 to 100 nM. The same measure, in the same setting: the result for `CC(C)(c1ccc(OCc2ccnc(N3CC4(COC4)C3)n2)cc1)c1ccc(OC[C@H]2CCCN2Cc2ccc3c(c2)C(=O)N(C2CCC(=O)NC2=O)C3=O)cc1` (some centres unmarked) [Example 565] reads 1000 to 5000 nM. The same measure, in the same setting: the same measure for `CC(C)(c1ccc(OCc2ccnc(N3CC4(COC4)C3)n2)cc1)c1ccc(OC[C@@H]2CCN2Cc2ccc3c(c2)C(=O)N(C2CCC(=O)NC2=O)C3=O)cc1` (some centres unmarked) [Example 566]: 1000 to 5000 nM.

Still in this test, the particulars now being: AR-v7 degradation in 22RV1 cells, 48 h, numeric values.
For the compound `CC(=O)c1nccc(COc2ccc(C(C)(C)c3ccc(OC4CCN(c5ccc6c(c5)C(=O)N(C5CCC(=O)NC5=O)C6=O)CC4)cc3)cc2)n1` (centres unmarked) [Example 557], the DC50 is > 10000 nM.
